Reference: patent US20060074243A1, “Hydroxamic acid and amide compounds and their use as protease inhibitors” (Pharmacia Corporation, priority 2002, published 2006)

Tests used:
[1] = molecular target: T1, Human recombinant MMP-2 (Homo sapiens, UniProt P08253); experiment: In vitro MMP inhibition analysis (fluorogenic peptide substrate cleavage), Ki; assay type: biochemical; settings: Table 2
T1 construct: made in house; host or cells: MMP-2-transfected p2AHT2 cells
T1 sequence (P08253 110-660): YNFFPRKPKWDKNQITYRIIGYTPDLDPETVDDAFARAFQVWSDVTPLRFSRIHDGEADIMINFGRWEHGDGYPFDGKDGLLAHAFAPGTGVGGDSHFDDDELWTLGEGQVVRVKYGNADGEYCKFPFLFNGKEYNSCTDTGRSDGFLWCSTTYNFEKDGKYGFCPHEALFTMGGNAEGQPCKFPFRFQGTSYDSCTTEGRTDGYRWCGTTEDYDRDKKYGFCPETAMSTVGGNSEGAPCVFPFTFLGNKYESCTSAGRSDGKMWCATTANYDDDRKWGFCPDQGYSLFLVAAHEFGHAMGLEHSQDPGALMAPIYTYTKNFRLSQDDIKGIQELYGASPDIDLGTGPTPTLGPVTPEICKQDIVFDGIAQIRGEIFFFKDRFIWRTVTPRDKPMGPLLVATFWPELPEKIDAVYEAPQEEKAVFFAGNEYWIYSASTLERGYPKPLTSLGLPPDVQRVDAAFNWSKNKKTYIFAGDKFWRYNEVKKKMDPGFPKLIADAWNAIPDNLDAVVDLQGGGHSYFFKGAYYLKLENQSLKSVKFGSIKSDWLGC
Method in brief: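 Human recombinant MMP-2 from transfected p2AHT2 cells was activated with APMA or trypsin and incubated 1 h at room temperature with compounds and 4 μM MCA-RPLGL(Dpa)ARER-NH2. Buffer was pH 7.5 Tris/NaCl/CaCl2, and fluorescence was read at ex 330/em 420 nm. Ki was fitted by Morrison's equation without substrate correction.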

[2] = molecular target: T2, Human recombinant MMP-13 (Homo sapiens, UniProt P45452); experiment: as above; assay type: biochemical; settings: Table 2
T2 construct: made in house; host or cells: baculovirus / insect cells
Method in brief: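 Baculovirus-expressed full-length MMP-13 proenzyme was purified on heparin-agarose and zinc-chelate columns, then APMA-activated. It cleaved 4 μM MCA/Dpa fluorogenic peptide in 100 mM Tris-HCl, 100 mM NaCl, 10 mM CaCl2, 0.05% Brij-23, pH 7.5, for 1 h at room temperature (ex 330/em 420 nm). Ki came from Morrison-equation fits with substrate ≤Km, uncorrected.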

SMILES | Ki [1] | Ki [2]
O=C(NO)C1(S(=O)(=O)c2ccc(-c3cnc(OCCCC(F)(F)F)cn3)cc2)CCOCC1 [Example 88] | 0.15 nM | 0.0368 nM
CCCCc1cnc(-c2ccc(S(=O)(=O)C3(C(=O)NO)CCN(CCOC)CC3)cc2)cn1 [Example 206] | 2.98 nM | 0.41 nM
CC(C)NC(=O)c1ccc(-c2ccc(S(=O)(=O)C3(C(=O)NO)CCOCC3)cc2)nc1 [Example 204] | 4.32 nM | 0.751 nM
COc1ccc(C(=O)c2cnc(-c3ccc(S(=O)(=O)C4(C(=O)NO)CCOCC4)cc3)cn2)cc1 [Example 179] | 2.99 nM | 0.973 nM
CCNc1cnc(-c2ccc(S(=O)(=O)C3(C(=O)NO)CCOCC3)cc2)cn1 [Example 93] | 4.16 nM | 4.45 nM
O=C(NCC1CCCCC1)c1cnc(-c2ccc(S(=O)(=O)C3(C(=O)NO)CCOCC3)cc2)cn1 [Example 190] | 1.7 nM | 0.28 nM
O=C(N1CCOCC1)N1CCC(C(=O)NO)(S(=O)(=O)c2ccc(-c3ccc(CCC(F)(F)C(F)(F)F)cc3)cc2)CC1 [Example 171] | 0.24 nM | 0.23 nM
O=C(NO)C1(S(=O)(=O)c2ccc(-c3ccc(CCC(F)(F)C(F)(F)F)cc3)cc2)CCS(=O)(=O)CC1 [Example 167] | 1.9 nM | 0.74 nM
O=C(NO)C1(S(=O)(=O)c2ccc(-c3ccc(C(F)(F)F)cc3F)cc2)CCOCC1 [Example 96] | 0.668 nM | 0.416 nM
O=C(NO)C1(S(=O)(=O)c2ccc(-c3cnc(-n4cccc4)cn3)cc2)CCOCC1 [Example 94] | 1.09 nM | 0.428 nM
CC(C)N(C(=O)N1CCC(C(=O)NO)(S(=O)(=O)c2ccc(-c3ccc(CCC(F)(F)C(F)(F)F)cc3)cc2)CC1)C(C)C [Example 174] | 1.24 nM | 1.92 nM
Cc1nc(CCc2ccc(-c3ccc(S(=O)(=O)C4(C(=O)NO)CCOCC4)cc3)cc2)no1 [Example 219] | 0.588 nM | 0.111 nM
CC(C)CCOc1ccc(-c2ccc(S(=O)(=O)C3(C(=O)NO)CCOCC3)cc2)cc1C(F)(F)F [Example 86] | 85.7 nM | 36.2 nM
O=C(Cc1ccc(-c2ccc(S(=O)(=O)C3(C(=O)NO)CCOCC3)cc2)nc1)N1CCCCC1 [Example 212] | 34.7 nM | 0.679 nM
COC/C(Cl)=C/c1cnc(-c2ccc(S(=O)(=O)C3(C(=O)NO)CCOCC3)cc2)cn1 [Example 165] | 2.46 nM | 0.84 nM
C#CCN1CCC(C(=O)NO)(S(=O)(=O)c2ccc(-c3ccc(CCC(F)(F)C(F)(F)F)cn3)cc2)CC1 [Example 199] | 0.085 nM | 0.086 nM
CC(C)c1ccc(-c2ccc(S(=O)(=O)C3(C(=O)NO)CCOCC3)cc2)cc1 [Example 97] | 1.14 nM | 0.521 nM
O=C(NO)C1(S(=O)(=O)c2ccc(-c3cnc(CCC(F)(F)F)cn3)cc2)CCN(C2CC2)CC1 [Example 215] | 1.15 nM | 0.356 nM

Next, values leading:

Ki [1] | Ki [2] | SMILES
58.1 nM | 29.7 nM | CCC(C)COc1ccc(-c2ccc(S(=O)(=O)C3(C(=O)NO)CCOCC3)cc2)cc1C(F)(F)F (stereo not shown) [Example 92]
2.16 nM | 0.323 nM | O=C(NC1CCCC1)c1ccc(-c2ccc(S(=O)(=O)C3(C(=O)NO)CCOCC3)cc2)nc1 [Example 198]
1.34 nM | 1.69 nM | O=C(NO)C1(S(=O)(=O)c2ccc(-c3nc4ccccc4o3)cc2)CCOCC1 [Example 193]
4.99 nM | 0.729 nM | CC[C@@H](C)NC(=O)c1ccc(-c2ccc(S(=O)(=O)C3(C(=O)NO)CCOCC3)cc2)nc1 [Example 207]
0.1 nM | 0.08 nM | O=C(NO)C1(S(=O)(=O)c2ccc(-c3cnc(OCC4CCC4)cn3)cc2)CCOCC1 [Example 178]
0.098 nM | 0.068 nM | O=C(NO)C1(S(=O)(=O)c2ccc(-c3ccc(OC(F)(F)F)cc3)cc2)CCOCC1 [Example 80]
6200 nM | 1080 nM | O=C(NO)C1(S(=O)(=O)c2ccc(-c3ccccc3CO)cc2)CCOCC1 [Example 197]
0.246 nM | 0.056 nM | O=C(CCc1nccs1)c1ccc(-c2ccc(S(=O)(=O)C3(C(=O)NO)CCOCC3)cc2)cc1 [Example 211]
